Molecular target: T1, Human TREX1 enzyme (amino acids 1-242) (Homo sapiens, UniProt Q9NSU2)
T1 construct: Human TREX1 enzyme (amino acids 1-242)
T1 sequence (Q9NSU2 1-242): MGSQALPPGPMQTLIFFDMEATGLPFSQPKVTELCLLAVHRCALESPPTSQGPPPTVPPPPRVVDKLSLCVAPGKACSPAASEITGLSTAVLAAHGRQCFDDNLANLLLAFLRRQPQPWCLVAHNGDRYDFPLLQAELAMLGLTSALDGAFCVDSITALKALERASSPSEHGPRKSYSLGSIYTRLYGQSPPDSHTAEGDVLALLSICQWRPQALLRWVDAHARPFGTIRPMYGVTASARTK
Experiment: Human TREX1 enzymatic assay with dsDNA native oligonucleotide (Picogreen fluorescence)
Format: biochemical
Conditions: 2 mM dithiothreitol in assay buffer; 50 nM dsDNA oligonucleotide; 30 min preincubation at 25° C.; read-out: TREX1/Human + DTT IC50 AVG
Method in brief: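 TREX1 (0.8–0.16 nM final) preincubated with compound (300 μM–13 nM or 30 μM–1.5 nM, 2% DMSO) 30 min at 25 °C in Tris pH 7.7, 5 mM MgCl2, 2 mM DTT. Annealed dsDNA (50 nM) added for 5–15 min at 25 °C; EDTA quench with Picogreen fluorescence readout.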

Row | Structure (SMILES) | IC50 [µM]
1 | COc1cc(-c2nc3cc(N4CCN(C(=O)c5ccccc5-c5ccccc5)CC4)ccc3[nH]2)cc(O)c1O [Example 105, [1,1′-biphenyl]-2-yl(4-(2-(3,4-dihydroxy-5-methoxyphenyl)-1H-benzo[d]imidazol-5-yl)piperazin-1-yl)methanone] | > 100
2 | COc1cc(-c2nc3ccc(N4CCN(C(=O)c5ccccc5)CC4)cc3n2C2CCOC2)cc(O)c1O (centres unmarked) [Example 106, (4-(2-(3,4-dihydroxy-5-methoxyphenyl)-1-(tetrahydrofuran-3-yl)-1H-benzo[d]imidazol-6-yl)piperazin-1-yl)(phenyl)methanone] | 1 to 10
3 | COc1cc(-c2nc3cc(N4CCN(C)C(=O)C4)ccc3[nH]2)cc(O)c1O [Example 108, 4-(2-(3,4-dihydroxy-5-methoxyphenyl)-1H-benzo[d]imidazol-5-yl)-1-methylpiperazin-2-one] | 1 to 10
4 | COc1cc(-c2nc3cc(C4CCN(C(C)=O)CC4)ccc3[nH]2)cc(O)c1O [Example 109, 1-(4-(2-(3,4-dihydroxy-5-methoxyphenyl)-1H-benzo[d]imidazol-5-yl)piperidin-1-yl)ethanone] | 10 to 100
5 | COc1cc(-c2nc3c(N4CCOCC4)nccc3[nH]2)cc(O)c1O [Example 110, 3-methoxy-5-(4-morpholino-1H-imidazo[4,5-c]pyridin-2-yl)benzene-1,2-diol] | > 100
6 | COc1cc(-c2nc3cc(N4CCN(C(=O)c5ccccc5Cl)CC4)ccc3[nH]2)cc(O)c1O [Example 111, (2-chlorophenyl)(4-(2-(3,4-dihydroxy-5-methoxyphenyl)-1H-benzo[d]imidazol-5-yl)piperazin-1-yl)methanone] | 1 to 10
7 | COc1cc(-c2nc3cc(N4CCN(C(=O)c5ccc(-c6ccccc6)cc5)CC4)ccc3[nH]2)cc(O)c1O [Example 112, [1,1′-biphenyl]-4-yl(4-(2-(3,4-dihydroxy-5-methoxyphenyl)-1H-benzo[d]imidazol-5-yl)piperazin-1-yl)methanone] | > 100
8 | COc1cc(-c2nc3cc(N4CCN(C(=O)c5cccc(-c6ccccc6)c5)CC4)ccc3[nH]2)cc(O)c1O [Example 113, [1,1′-biphenyl]-3-yl(4-(2-(3,4-dihydroxy-5-methoxyphenyl)-1H-benzo[d]imidazol-5-yl)piperazin-1-yl)methanone] | > 100
9 | O=C(O)c1ccc(-c2nc3cc(N4CCC4)ccc3[nH]2)cc1O [Example 114, 4-(5-(azetidin-1-yl)-1H-benzo[d]imidazol-2-yl)-2-hydroxybenzoic acid] | 10 to 100
10 | O=C(O)c1cc(-c2nc3cc(N4CCC4)ccc3[nH]2)ccc1O [Example 115, 5-(5-(azetidin-1-yl)-1H-benzo[d]imidazol-2-yl)-2-hydroxybenzoic acid] | 10 to 100
11 | COc1cc(-c2nc3cc(N4CCN(S(=O)(=O)C(C)C)CC4)ccc3[nH]2)cc(O)c1O [Example 116, 5-(5-(4-(isopropylsulfonyl)piperazin-1-yl)-1H-benzo[d]imidazol-2-yl)-3-methoxybenzene-1,2-diol] | 1 to 10
12 | CS(=O)(=O)N1CCN(c2ccc3[nH]c(-c4ccc(C(=O)O)c(O)c4)nc3c2)CC1 [Example 117, 2-hydroxy-4-(5-(4-(methylsulfonyl)piperazin-1-yl)-1H-benzo[d]imidazol-2-yl)benzoic acid] | 10 to 100
13 | O=C(O)c1ccc(-c2nc3cc(N4CCN(C(=O)c5ccccc5)CC4)ccc3[nH]2)cc1O [Example 118, 4-(5-(4-benzoylpiperazin-1-yl)-1H-benzo[d]imidazol-2-yl)-2-hydroxybenzoic acid] | 10 to 100
14 | O=C(O)c1ccc(-c2nc3cc(N4CCN(c5cccnc5)CC4)ccc3[nH]2)cc1O [Example 119, 2-hydroxy-4-(5-(4-(pyridin-3-yl)piperazin-1-yl)-1H-benzo[d]imidazol-2-yl)benzoic acid] | 10 to 100
15 | O=C(O)c1cc(F)c(-c2nc3ccncc3[nH]2)cc1O [Example 120, 5-fluoro-2-hydroxy-4-(3H-imidazo[4,5-c]pyridin-2-yl)benzoic acid] | 10 to 100
16 | COc1cc(-c2nc3cc(N4CCN(C)C(C)(C)C4)ccc3[nH]2)cc(O)c1O [Example 121, 3-methoxy-5-(5-(3,3,4-trimethylpiperazin-1-yl)-1H-benzo[d]imidazol-2-yl)benzene-1,2-diol] | > 100
17 | COc1cc(-c2nc3cc(N4CC5(CN(CC(F)(F)F)C5)C4)ccc3[nH]2)cc(O)c1O [Example 122, 3-methoxy-5-(5-(6-(2,2,2-trifluoroethyl)-2,6-diazaspiro[3.3]heptan-2-yl)-1H-benzo[d]imidazol-2-yl)benzene-1,2-diol] | 10 to 100
18 | COc1cc(-c2nc3cc(N4CCN(C(=O)c5cccc(Cl)c5)CC4)ccc3[nH]2)cc(O)c1O [Example 123, (3-chlorophenyl)(4-(2-(3,4-dihydroxy-5-methoxyphenyl)-1H-benzo[d]imidazol-5-yl)piperazin-1-yl)methanone] | 10 to 100

Row | Structure (SMILES) | IC50 [µM]
19 | COc1cccc(C(=O)N2CCN(c3ccc4[nH]c(-c5cc(O)c(O)c(OC)c5)nc4c3)CC2)c1 [Example 124, (4-(2-(3,4-dihydroxy-5-methoxyphenyl)-1H-benzo[d]imidazol-5-yl)piperazin-1-yl)(3-methoxyphenyl)methanone] | 1 to 10
20 | COc1cc(-c2nc3cc(N4CCN(C(=O)c5cc(C)cc(C)c5)CC4)ccc3[nH]2)cc(O)c1O [Example 125, (4-(2-(3,4-dihydroxy-5-methoxyphenyl)-1H-benzo[d]imidazol-5-yl)piperazin-1-yl)(3,5-dimethylphenyl)methanone] | > 100
21 | COc1cc(-c2nc3cc(N4CCN(C(=O)c5ccc(C(C)(C)C)cc5)CC4)ccc3[nH]2)cc(O)c1O [Example 126, (4-(tert-butyl)phenyl)(4-(2-(3,4-dihydroxy-5-methoxyphenyl)-1H-benzo[d]imidazol-5-yl)piperazin-1-yl)methanone] | > 100
22 | COc1cc(-c2nc3cc(N4CCN(C(=O)c5ccc(C(=O)O)cc5)CC4)ccc3[nH]2)cc(O)c1O [Example 127, 4-(4-(2-(3,4-dihydroxy-5-methoxyphenyl)-1H-benzo[d]imidazol-5-yl)piperazine-1-carbonyl)benzoic acid] | 10 to 100
23 | COc1cc(-c2nc3cc(N4CCN(C(=O)CCCCN)CC4)ccc3n2COCC[Si](C)(C)C)cc(O)c1O [Example 128, 5-amino-1-(4-(2-(3,4-dihydroxy-5-methoxyphenyl)-1-((2-(trimethylsilyl)ethoxy)methyl)-1H-benzo[d]imidazol-5-yl)piperazin-1-yl)pentan-1-one] | 10 to 100
24 | O=C(O)c1ccc(-c2nc3cc(N4CCC4)ccc3[nH]2)c(F)c1O [Example 129, 4-(5-(azetidin-1-yl)-1H-benzo[d]imidazol-2-yl)-3-fluoro-2-hydroxybenzoic acid] | 1 to 10
25 | COc1cc(-c2nc3ccccc3n2C2COC2)c(C(F)(F)F)c(O)c1O [Example 130, 6-methoxy-4-(1-(oxetan-3-yl)-1H-benzo[d]imidazol-2-yl)-3-(trifluoromethyl)benzene-1,2-diol] | 10 to 100
26 | COc1cc(-c2nc3cc(N4CCN(c5ccncc5)CC4)ccc3[nH]2)cc(O)c1O [Example 131, 3-methoxy-5-(5-(4-(pyridin-4-yl)piperazin-1-yl)-1H-benzo[d]imidazol-2-yl)benzene-1,2-diol] | 10 to 100
27 | COc1cc(-c2nc3cc(N4CC5(CN(C(C)=O)C5)C4)ccc3[nH]2)cc(O)c1O [Example 132, 1-(6-(2-(3,4-dihydroxy-5-methoxyphenyl)-1H-benzo[d]imidazol-5-yl)-2,6-diazaspiro[3.3]heptan-2-yl)ethan-1-one] | 10 to 100
28 | COc1cc(-c2nc3cc(N4CCN(C(=O)c5ccccc5C(C)(C)C)CC4)ccc3[nH]2)cc(O)c1O [Example 133, (2-(tert-butyl)phenyl)(4-(2-(3,4-dihydroxy-5-methoxyphenyl)-1H-benzo[d]imidazol-5-yl)piperazin-1-yl)methanone] | > 100
29 | COc1cc(-c2nc3cc(N4CCN(C(=O)c5cccc(C(C)(C)C)c5)CC4)ccc3[nH]2)cc(O)c1O [Example 134, (3-(tert-butyl)phenyl)(4-(2-(3,4-dihydroxy-5-methoxyphenyl)-1H-benzo[d]imidazol-5-yl)piperazin-1-yl)methanone] | > 100
30 | COc1cc(-c2nc3cc(N4[C@@H]5CC[C@H]4CN(C(=O)c4ccccc4)C5)ccc3[nH]2)cc(O)c1O [Example 135, ((1R,5S)-8-(2-(3,4-dihydroxy-5-methoxyphenyl)-1H-benzo[d]imidazol-5-yl)-3,8-diazabicyclo[3.2.1]octan-3-yl)(phenyl)methanone] | 1 to 10
31 | COc1cc(-c2nc3cc(N4C[C@H]5CC[C@@H](C4)N5C(=O)c4ccccc4)ccc3[nH]2)cc(O)c1O [Example 136] | > 100
32 | COc1cc(-c2nc3cc(N4CCCC4)ccc3[nH]2)cc(O)c1O [Example 137, 3-methoxy-5-(5-(pyrrolidin-1-yl)-1H-benzo[d]imidazol-2-yl)benzene-1,2-diol] | 1 to 10
33 | COc1cc(-c2nc3cc(N4CC(C#N)C4)ccc3[nH]2)cc(O)c1O [Example 138, 1-(2-(3,4-dihydroxy-5-methoxyphenyl)-1H-benzo[d]imidazol-5-yl)azetidine-3-carbonitrile] | > 100
34 | COc1cc(-c2nc3cc(N4CC(S(C)(=O)=O)C4)ccc3[nH]2)cc(O)c1O [Example 139, 3-methoxy-5-(5-(3-(methylsulfonyl)azetidin-1-yl)-1H-benzo[d]imidazol-2-yl)benzene-1,2-diol] | 1 to 10
35 | O=C(O)c1cc(-c2nc3cc(N4CCOCC4)ccc3[nH]2)ccc1O [Example 140, 2-hydroxy-5-(5-morpholino-1H-benzo[d]imidazol-2-yl)benzoic acid] | 10 to 100
